# Results reported in ChEMBL document CHEMBL1201862, “PubChem BioAssay data set” (2004).
#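 Following 48 hours of exposure in 96-well plates, responses at five concentrations were used to interpolate endpoints linearly. The concentration for 50% growth inhibition is given as GI50.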 Calls of active or inactive are those of the source. Rule as the data show it: active = GI50 up to about 1.1 µM and inactive = higher.
# Tests used:
# Experiment in all cases: NCI tumour cell line growth inhibition, 48 h
# [1] = tested on: 786-0
# [2] = tested on: A498
# [3] = tested on: A549
# [4] = tested on: ACHN
# [5] = tested on: CAKI-1
# [6] = tested on: CCRF-CEM
# [7] = tested on: COLO 205
# [8] = tested on: DU-145
# [9] = tested on: EKVX
# [10] = tested on: HCC 2998
# [11] = tested on: HCT-116
# [12] = tested on: HCT-15
# [13] = tested on: HL-60
# [14] = tested on: HOP-62
# [15] = tested on: HOP-92
# [16] = tested on: HT-29
# [17] = tested on: Hs-578T
# [18] = tested on: IGROV-1
# [19] = tested on: K562
# [20] = tested on: KM12
# [21] = tested on: LOX IMVI
# [22] = tested on: M14
# [23] = tested on: MCF7
# [24] = tested on: MDA-MB-435
# [25] = tested on: MDA-N
# [26] = tested on: MOLT-4
# [27] = tested on: NCI-H226
# [28] = tested on: NCI-H23
# [29] = tested on: NCI-H460
# [30] = tested on: NCI-H522
# [31] = tested on: NCI/ADR-RES
# [32] = tested on: OVCAR-3
# [33] = tested on: OVCAR-5
# [34] = tested on: OVCAR-8
# [35] = tested on: RPMI-8226
# [36] = tested on: RXF 393
# [37] = tested on: SF-268
# [38] = tested on: SF-295
# [39] = tested on: SF-539
# [40] = tested on: SK-MEL-5
# [41] = tested on: SK-OV-3
# [42] = tested on: SN12C
# [43] = tested on: SNB-75
# [44] = tested on: SR
# [45] = tested on: SW-620
# [46] = tested on: T47D
# [47] = tested on: TK-10
# [48] = tested on: U-251
# [49] = tested on: UACC-257
# [50] = tested on: UACC-62
# [51] = tested on: UO-31
# [52] = tested on: SK-MEL-28
# [53] = tested on: MDA-MB-231
# [54] = tested on: Malme-3M
# [55] = tested on: OVCAR-4
# [56] = tested on: PC-3
# [57] = tested on: SK-MEL-2
# [58] = tested on: SNB-19
compound,measurement,setting,value
O=C1[C@H](O)[C@@H]2CCC[C@@]23CCCN13,GI50,[1],> 100 µM (inactive)
same,GI50,[2],> 100 µM (inactive)
same,GI50,[3],> 100 µM (inactive)
same,GI50,[4],> 100 µM (inactive)
same,GI50,[5],> 100 µM (inactive)
same,GI50,[6],94.4 µM (inactive)
same,GI50,[7],> 100 µM (inactive)
same,GI50,[8],> 100 µM (inactive)
same,GI50,[9],> 100 µM (inactive)
same,GI50,[10],> 100 µM (inactive)
same,GI50,[11],> 100 µM (inactive)
same,GI50,[12],> 100 µM
same,GI50,[13],> 100 µM (inactive)
same,GI50,[14],> 100 µM (inactive)
same,GI50,[15],> 100 µM (inactive)
same,GI50,[16],> 100 µM (inactive)
same,GI50,[17],> 100 µM (inactive)
same,GI50,[18],> 100 µM (inactive)
same,GI50,[19],> 100 µM (inactive)
same,GI50,[20],> 100 µM (inactive)
same,GI50,[21],> 100 µM (inactive)
same,GI50,[22],> 100 µM (inactive)
same,GI50,[23],> 100 µM (inactive)
same,GI50,[24],> 100 µM (inactive)
same,GI50,[25],> 100 µM (inactive)
same,GI50,[26],> 100 µM (inactive)
same,GI50,[27],> 100 µM (inactive)
same,GI50,[28],> 100 µM (inactive)
same,GI50,[29],> 100 µM (inactive)
same,GI50,[30],> 100 µM (inactive)
same,GI50,[31],> 100 µM (inactive)
same,GI50,[32],> 100 µM (inactive)
same,GI50,[33],> 100 µM (inactive)
same,GI50,[34],> 100 µM (inactive)
same,GI50,[35],> 100 µM (inactive)
same,GI50,[36],> 100 µM (inactive)
same,GI50,[37],> 100 µM (inactive)
same,GI50,[38],> 100 µM (inactive)
same,GI50,[39],> 100 µM (inactive)
same,GI50,[40],> 100 µM (inactive)
same,GI50,[41],> 100 µM (inactive)
same,GI50,[42],> 100 µM (inactive)
same,GI50,[43],> 100 µM (inactive)
same,GI50,[44],> 100 µM (inactive)
same,GI50,[45],> 100 µM (inactive)
same,GI50,[46],> 100 µM (inactive)
same,GI50,[47],> 100 µM (inactive)
same,GI50,[48],> 100 µM (inactive)
same,GI50,[49],> 100 µM (inactive)
same,GI50,[50],> 100 µM (inactive)
same,GI50,[51],> 100 µM (inactive)
CN(C)CC1CCCCCCCCCCC1=O (centres undefined),GI50,[17],66.4 µM (inactive)
same,GI50,[18],> 100 µM (inactive)
same,GI50,[52],> 100 µM (inactive)
same,GI50,[40],> 100 µM (inactive)
same,GI50,[41],86.7 µM (inactive)
same,GI50,[43],> 100 µM (inactive)
same,GI50,[50],> 100 µM (inactive)
CC1=CCC[C@]2(C)C1=CC(=O)O[C@H]2c1ccoc1,GI50,[1],> 100 µM (inactive)
same,GI50,[2],> 100 µM (inactive)
same,GI50,[3],> 100 µM (inactive)
same,GI50,[4],> 100 µM (inactive)
same,GI50,[5],> 100 µM (inactive)
same,GI50,[6],> 100 µM (inactive)
same,GI50,[7],> 100 µM (inactive)
same,GI50,[8],> 100 µM (inactive)
same,GI50,[9],> 100 µM (inactive)
same,GI50,[10],> 100 µM (inactive)
same,GI50,[11],> 100 µM (inactive)
same,GI50,[12],> 100 µM
same,GI50,[13],49.8 µM (inactive)
same,GI50,[14],> 100 µM (inactive)
same,GI50,[15],> 100 µM (inactive)
same,GI50,[16],> 100 µM (inactive)
same,GI50,[17],> 100 µM (inactive)
same,GI50,[18],> 100 µM (inactive)
same,GI50,[19],> 100 µM (inactive)
same,GI50,[20],> 100 µM (inactive)
same,GI50,[21],> 100 µM (inactive)
same,GI50,[23],> 100 µM (inactive)
same,GI50,[53],> 100 µM (inactive)
same,GI50,[24],> 100 µM (inactive)
same,GI50,[25],> 100 µM (inactive)
same,GI50,[26],> 100 µM (inactive)
same,GI50,[54],> 100 µM (inactive)
same,GI50,[27],> 100 µM (inactive)
same,GI50,[28],> 100 µM (inactive)
same,GI50,[29],> 100 µM (inactive)
same,GI50,[30],> 100 µM (inactive)
same,GI50,[31],> 100 µM (inactive)
same,GI50,[32],> 100 µM (inactive)
same,GI50,[55],> 100 µM (inactive)
same,GI50,[33],> 100 µM (inactive)
same,GI50,[34],> 100 µM (inactive)
same,GI50,[56],> 100 µM (inactive)
same,GI50,[35],> 100 µM (inactive)
same,GI50,[36],> 100 µM (inactive)
same,GI50,[37],> 100 µM (inactive)
same,GI50,[38],> 100 µM (inactive)
same,GI50,[52],> 100 µM (inactive)
same,GI50,[57],> 100 µM (inactive)
same,GI50,[40],> 100 µM (inactive)
same,GI50,[41],> 100 µM (inactive)
same,GI50,[42],> 100 µM (inactive)
same,GI50,[58],23.6 µM (inactive)
same,GI50,[43],> 100 µM (inactive)
same,GI50,[44],> 100 µM (inactive)
same,GI50,[45],> 100 µM (inactive)
same,GI50,[46],> 100 µM (inactive)
same,GI50,[47],> 100 µM (inactive)
same,GI50,[48],> 100 µM (inactive)
same,GI50,[49],> 100 µM (inactive)
same,GI50,[50],> 100 µM (inactive)
same,GI50,[51],44.6 µM (inactive)
